Paper PMC6720199, “Antioxidant, Anti-Inflammatory, and Multidrug Resistance Modulation Activity of Silychristin Derivatives” (Antioxidants, 2019)

Molecular target: T1, P-glycoprotein (P-gp, ABCB1) (Homo sapiens, UniProt P08183)
T1 construct: P-gp containing membranes of the commercial Pgp-Glo Assay System (Promega; kit membranes carry recombinant human P-gp); full length, not purified
Assay: Pgp-Glo luminescent ATPase assay, P-gp membranes
Format: biochemical
Excerpt: Pgp-Glo luminescent ATPase assay, P-gp membranes on P-glycoprotein (P-gp, ABCB1)

T1 sequence (P08183 whole entry): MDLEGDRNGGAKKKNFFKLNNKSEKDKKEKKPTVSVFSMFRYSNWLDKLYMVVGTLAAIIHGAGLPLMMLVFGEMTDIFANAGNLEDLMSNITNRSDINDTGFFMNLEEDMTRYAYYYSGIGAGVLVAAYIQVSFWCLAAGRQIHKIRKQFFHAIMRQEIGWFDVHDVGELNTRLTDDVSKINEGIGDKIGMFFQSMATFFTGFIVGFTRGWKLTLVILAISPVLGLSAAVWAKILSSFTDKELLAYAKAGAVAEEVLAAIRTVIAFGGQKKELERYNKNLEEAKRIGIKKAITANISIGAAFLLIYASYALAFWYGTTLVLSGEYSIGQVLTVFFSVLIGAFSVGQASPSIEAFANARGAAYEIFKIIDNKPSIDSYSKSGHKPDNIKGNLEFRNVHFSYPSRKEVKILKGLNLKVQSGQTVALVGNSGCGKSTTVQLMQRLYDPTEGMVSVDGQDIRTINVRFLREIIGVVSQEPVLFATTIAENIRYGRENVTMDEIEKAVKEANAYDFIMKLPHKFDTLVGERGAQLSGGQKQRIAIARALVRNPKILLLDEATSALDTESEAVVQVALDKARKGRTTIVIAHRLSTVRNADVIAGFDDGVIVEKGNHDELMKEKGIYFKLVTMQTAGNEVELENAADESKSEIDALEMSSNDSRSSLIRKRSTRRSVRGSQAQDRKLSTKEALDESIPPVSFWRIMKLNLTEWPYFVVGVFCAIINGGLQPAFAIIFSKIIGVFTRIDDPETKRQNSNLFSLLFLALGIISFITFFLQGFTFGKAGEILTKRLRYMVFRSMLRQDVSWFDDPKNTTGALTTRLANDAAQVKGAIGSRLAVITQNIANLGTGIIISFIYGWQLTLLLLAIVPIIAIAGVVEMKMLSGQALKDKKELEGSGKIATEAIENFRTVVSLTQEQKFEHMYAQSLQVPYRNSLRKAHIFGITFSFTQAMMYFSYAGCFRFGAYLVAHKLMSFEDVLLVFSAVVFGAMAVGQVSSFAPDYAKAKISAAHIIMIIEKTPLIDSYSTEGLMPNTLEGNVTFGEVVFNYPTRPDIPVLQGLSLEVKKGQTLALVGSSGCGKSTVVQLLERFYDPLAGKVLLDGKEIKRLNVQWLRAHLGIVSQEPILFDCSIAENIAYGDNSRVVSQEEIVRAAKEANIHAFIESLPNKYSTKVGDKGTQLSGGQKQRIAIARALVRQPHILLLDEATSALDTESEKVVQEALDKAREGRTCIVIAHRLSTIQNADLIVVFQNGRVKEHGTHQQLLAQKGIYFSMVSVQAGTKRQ

Row | IC50 | SMILES
1 | 15.6 ± 0.5 µM | COc1cc([C@@H]2Oc3c(O)cc(-c4oc5cc(O)cc(O)c5c(=O)c4O)cc3[C@H]2CO)ccc1O [2,3-Dehydrosilychristin A]
2 | 16.8 ± 0.2 µM | COc1cc(-c2oc3c(O)cc([C@H]4Oc5cc(O)cc(O)c5C(=O)[C@@H]4O)cc3c2C)ccc1O [Anhydrosilychristin]
3 | 21 ± 1 µM | COc1cc([C@@H]2Oc3c(O)cc([C@H]4Oc5cc(O)cc(O)c5C(=O)[C@@H]4O)cc3[C@H]2CO)ccc1O [Silychristin A]
